Reference: PubChem BioAssay AID1259407 (Chemical Carcinogenesis Research Information System (CCRIS), 2018)
Activity calls are given as the source filed them. The rule behind the calls is not given here.

System: CCRIS mutagenicity, Ames/micronucleus/aberration tests
Test: CCRIS mutagenicity studies
[1] = Test System: AMES SALMONELLA TYPHIMURIUM, Strain/Indicator: TA98, Metabolic Activation: NONE, Method: STANDARD PLATE
[2] = Test System: AMES SALMONELLA TYPHIMURIUM, Strain/Indicator: TA100, Metabolic Activation: NONE, Method: PREINCUBATION

How did the mutagenic call (End Point: In vitro chromosomal aberrations, Test System: Human peripheral lymphocytes, Metabolic Activation: None) turn out when OB(O)O was run?
Its mutagenic call is “active; positive (structural changes)”.

What about the mutagenic call (End Point: In vitro micronucleus, Test System: Human peripheral blood lymphocytes, Metabolic Activation: None) of the same compound?
Its mutagenic call is “inactive; negative”.

And the mutagenic call (Test System: AMES SALMONELLA TYPHIMURIUM, Strain/Indicator: TA98, Metabolic Activation: HAMSTER, LIVER, S-9, AROCLOR 1254, Method: PREINCUBATION)?
The mutagenic call was “inactive; negative”.

And the mutagenic call (Test System: AMES SALMONELLA TYPHIMURIUM, Strain/Indicator: TA98, Metabolic Activation: NONE, Method: PREINCUBATION)?
The mutagenic call was “inactive; negative”.

And the mutagenic call [1]?
The mutagenic call was “inactive; negative”.

And the mutagenic call (Test System: AMES SALMONELLA TYPHIMURIUM, Strain/Indicator: TA98, Metabolic Activation: RAT LIVER S-9, PHENOBARBITAL AND BETA-NAPHTHOFLAVONE, Method: PREINCUBATION)?
The mutagenic call was “inactive; negative”.

And the mutagenic call (Test System: AMES SALMONELLA TYPHIMURIUM, Strain/Indicator: TA98, Metabolic Activation: RAT, LIVER, S-9, AROCLOR 1254, Method: PREINCUBATION)?
The mutagenic call was “inactive; negative”.

What about the mutagenic call (Test System: AMES SALMONELLA TYPHIMURIUM, Strain/Indicator: TA98, Metabolic Activation: RAT, LIVER, S-9, BETA-NAPHTHOFLAVONE AND PHENOBARBITAL, Method: STANDARD PLATE) of the same compound?
The mutagenic call was “inactive; negative”.

And the mutagenic call (Test System: AMES SALMONELLA TYPHIMURIUM, Strain/Indicator: TA100, Metabolic Activation: HAMSTER, LIVER, S-9, AROCLOR 1254, Method: PREINCUBATION)?
Its mutagenic call is “inactive; negative”.

What about the mutagenic call [2] of the same compound?
The mutagenic call was “inactive; negative”.

And the mutagenic call (Test System: AMES SALMONELLA TYPHIMURIUM, Strain/Indicator: TA100, Metabolic Activation: RAT LIVER S-9, PHENOBARBITAL AND BETA-NAPHTHOFLAVONE, Method: PREINCUBATION)?
The mutagenic call was “inactive; negative”.

And the mutagenic call (Test System: AMES SALMONELLA TYPHIMURIUM, Strain/Indicator: TA100, Metabolic Activation: RAT, LIVER, S-9, AROCLOR 1254, Method: PREINCUBATION)?
The mutagenic call was “inactive; negative”.

And the mutagenic call (Test System: AMES SALMONELLA TYPHIMURIUM, Strain/Indicator: TA100, Metabolic Activation: RAT, LIVER, S-9, BETA-NAPHTHOFLAVONE AND PHENOBARBITAL, Method: STANDARD PLATE)?
Its mutagenic call is “inactive; negative”.

And the mutagenic call (Test System: AMES SALMONELLA TYPHIMURIUM, Strain/Indicator: TA102, Metabolic Activation: NONE, Method: STANDARD PLATE)?
Its mutagenic call is “inactive; negative”.

What about the mutagenic call (Test System: AMES SALMONELLA TYPHIMURIUM, Strain/Indicator: TA102, Metabolic Activation: RAT, LIVER, S-9, BETA-NAPHTHOFLAVONE AND PHENOBARBITAL, Method: STANDARD PLATE) of the same compound?
Its mutagenic call is “inactive; negative”.

And the mutagenic call (Test System: AMES SALMONELLA TYPHIMURIUM, Strain/Indicator: TA1535, Metabolic Activation: HAMSTER, LIVER, S-9, AROCLOR 1254, Method: PREINCUBATION)?
The mutagenic call was “inactive; negative”.

And the mutagenic call (Test System: AMES SALMONELLA TYPHIMURIUM, Strain/Indicator: TA1535, Metabolic Activation: NONE, Method: PREINCUBATION)?
The mutagenic call was “inactive; negative”.

And the mutagenic call (Test System: AMES SALMONELLA TYPHIMURIUM, Strain/Indicator: TA1535, Metabolic Activation: RAT LIVER S-9, PHENOBARBITAL AND BETA-NAPHTHOFLAVONE, Method: PREINCUBATION)?
Its mutagenic call is “inactive; negative”.

And the mutagenic call (Test System: AMES SALMONELLA TYPHIMURIUM, Strain/Indicator: TA1535, Metabolic Activation: RAT, LIVER, S-9, AROCLOR 1254, Method: PREINCUBATION)?
The mutagenic call was “inactive; negative”.

And the mutagenic call (Test System: AMES SALMONELLA TYPHIMURIUM, Strain/Indicator: TA1537, Metabolic Activation: HAMSTER, LIVER, S-9, AROCLOR 1254, Method: PREINCUBATION)?
Its mutagenic call is “inactive; negative”.

What about the mutagenic call (Test System: AMES SALMONELLA TYPHIMURIUM, Strain/Indicator: TA1537, Metabolic Activation: NONE, Method: PREINCUBATION) of the same compound?
The mutagenic call was “inactive; negative”.

What about the mutagenic call (Test System: AMES SALMONELLA TYPHIMURIUM, Strain/Indicator: TA1537, Metabolic Activation: RAT LIVER S-9, PHENOBARBITAL AND BETA-NAPHTHOFLAVONE, Method: PREINCUBATION) of the same compound?
The mutagenic call was “inactive; negative”.

And the mutagenic call (Test System: AMES SALMONELLA TYPHIMURIUM, Strain/Indicator: TA1537, Metabolic Activation: RAT, LIVER, S-9, AROCLOR 1254, Method: PREINCUBATION)?
Its mutagenic call is “inactive; negative”.

What about the mutagenic call (Test System: AMES SALMONELLA TYPHIMURIUM, Strain/Indicator: TA1538, Metabolic Activation: NONE, Method: PREINCUBATION) of the same compound?
Its mutagenic call is “inactive; negative”.

And the mutagenic call (Test System: AMES SALMONELLA TYPHIMURIUM, Strain/Indicator: TA1538, Metabolic Activation: RAT LIVER S-9, PHENOBARBITAL AND BETA-NAPHTHOFLAVONE, Method: PREINCUBATION)?
Its mutagenic call is “inactive; negative”.

And the mutagenic call (Test System: E.COLI, Strain/Indicator: WP2UVRA, Metabolic Activation: NONE, Method: PREINCUBATION)?
Its mutagenic call is “inactive; negative”.

And the mutagenic call (Test System: E.COLI, Strain/Indicator: WP2UVRA, Metabolic Activation: RAT LIVER S-9, PHENOBARBITAL AND BETA-NAPHTHOFLAVONE, Method: PREINCUBATION)?
The mutagenic call was “inactive; negative”.

And the mutagenic call (Test System: MOUSE LYMPHOMA, Strain/Indicator: L5178Y (TK+/TK-), Metabolic Activation: NONE, Method: SUSPENSION/PLATE)?
The mutagenic call was “inactive; negative”.

What about the mutagenic call (Test System: MOUSE LYMPHOMA, Strain/Indicator: L5178Y (TK+/TK-), Metabolic Activation: RAT, LIVER, S-9, AROCLOR 1254, Method: SUSPENSION/PLATE) of the same compound?
Its mutagenic call is “inactive; negative”.

With CC(=O)Nc1ccc(Sc2ccccc2)cc1 as the compound, how does the mutagenic call [1] read?
Its mutagenic call is “inactive; negative”.

And the mutagenic call (Test System: AMES SALMONELLA TYPHIMURIUM, Strain/Indicator: TA98, Metabolic Activation: RAT, LIVER, S-9, AROCLOR 1254, Method: STANDARD PLATE)?
The mutagenic call was “active; positive”.

How did the mutagenic call (Test System: AMES SALMONELLA TYPHIMURIUM, Strain/Indicator: TA98, Metabolic Activation: RAT, LIVER, S-9, AROCLOR, Method: STANDARD PLATE) turn out when Cc1nc2ccc3ccc4ccc(O)cc4c3c2n1C was run?
The mutagenic call was “active; positive”.

Which mutagenic call (Test System: AMES SALMONELLA TYPHIMURIUM, Strain/Indicator: TA100, Metabolic Activation: RAT, LIVER, S-9, PHENOBARBITAL AND 5,6-BENZOFLAVONE, Method: STANDARD PLATE) does the source give for c1ccc2c(c1)ccc1cc3ccc4ccccc4c3nc12 here?
The mutagenic call was “active; positive”.

With C[C@@H](CN=[N+]=[N-])c1ccccc1 as the compound, how does the mutagenic call [2] read?
Its mutagenic call is “inactive; negative”.

What about the mutagenic call (Test System: AMES SALMONELLA TYPHIMURIUM, Strain/Indicator: TA100, Metabolic Activation: RAT, LIVER, S-9, PCB, Method: PREINCUBATION) of the same compound?
Its mutagenic call is “active; positive”.

With CC(=O)Nc1ccc2ccc3ccc(O)c4ccc1c2c34 as the compound, how does the mutagenic call (Test System: AMES SALMONELLA TYPHIMURIUM, Strain/Indicator: TA98(1,8-DNP6), Metabolic Activation: NONE, Method: STANDARD PLATE) read?
The mutagenic call was “inactive; negative”.

What about the mutagenic call (Test System: AMES SALMONELLA TYPHIMURIUM, Strain/Indicator: TA98(1,8-DNP6), Metabolic Activation: RAT, LIVER, S-9, AROCLOR 1254, Method: STANDARD PLATE) of the same compound?
Its mutagenic call is “inactive; negative”.

What about the mutagenic call (Test System: AMES SALMONELLA TYPHIMURIUM, Strain/Indicator: YG1024, Metabolic Activation: NONE, Method: STANDARD PLATE) of the same compound?
The mutagenic call was “inactive; negative”.

And the mutagenic call (Test System: AMES SALMONELLA TYPHIMURIUM, Strain/Indicator: YG1024, Metabolic Activation: RAT, LIVER, S-9, AROCLOR 1254, Method: STANDARD PLATE)?
The mutagenic call was “inactive; negative”.

Which mutagenic call (Test System: E. COLI, Strain/Indicator: CL101P, Metabolic Activation: NONE, Method: PREINCUBATION) does the source give for O[C@H]1[C@H]2O[C@H]2c2c(ccc3ccc4ccccc4c23)[C@@H]1O here?
The mutagenic call was “active; positive”.

And the mutagenic call (Test System: E. COLI, Strain/Indicator: CL102P, Metabolic Activation: NONE, Method: PREINCUBATION)?
Its mutagenic call is “active; positive”.

And the mutagenic call (Test System: E. COLI, Strain/Indicator: CL103P, Metabolic Activation: NONE, Method: PREINCUBATION)?
Its mutagenic call is “active; positive”.

What about the mutagenic call (Test System: E. COLI, Strain/Indicator: CL104P, Metabolic Activation: NONE, Method: PREINCUBATION) of the same compound?
The mutagenic call was “active; positive”.

And the mutagenic call (Test System: E. COLI, Strain/Indicator: CL105P, Metabolic Activation: NONE, Method: PREINCUBATION)?
Its mutagenic call is “active; positive”.

What about the mutagenic call (Test System: E. COLI, Strain/Indicator: CL106P, Metabolic Activation: NONE, Method: PREINCUBATION) of the same compound?
Its mutagenic call is “active; positive”.

Which results are given for COP(=S)(OC)Oc1ccc(SC)c(C)c1?
mutagenic call (End Point: IN VITRO CHROMOSOMAL ABERRATIONS, Test System: HUMAN PERIPHERAL LYMPHOCYTES, Metabolic Activation: NONE): active; positive (structural changes); mutagenic call (End Point: In vitro chromosomal aberration, Test System: Chinese hamster ovary (CHO) cells, Metabolic Activation: None): inactive; negative; mutagenic call (End Point: In vitro chromosomal aberration, Test System: Chinese hamster ovary (CHO) cells, Metabolic Activation: Rat, Liver, S-9): inactive; negative; mutagenic call (Test System: UDS Rat hepatocytes, Strain/Indicator: Thymidine incorporation, Metabolic Activation: None, Method: Autoradiography): active; positive
